One test concerns A. baumannii ATCC 19606. The experiment in a line: Broth microdilution MIC in CAMHB. The class given is cell-based. Conditions: Acinetobacter baumannii, ATCC19606; MHB; read-out: Minimum Inhibitory Concentration, A. baumannii ATCC 19606. As for the experimental part: (§1) Example III: In Vitro Antibacterial Assays
(§2) To determine the ability of test compounds to inhibit the growth of bacterial strains, classic cell based broth microdilution minimum inhibitory concentration (MIC) assays were employed. MIC assays are performed according to CLSI methods except where otherwise noted (CLSI, 2018 and CLSI, 2019). The reference type strain E. coli ATCC 25922; the wild-type parent strain E. coli AG100; the hyper-permeable E. coli 901C and E. coli D22; and the E. coli AG100A strain lacking the acrAB efflux pump encoding genes were used to determine the ability of the PBP inhibitors to penetrate the outer membrane of gram-negative bacteria and inhibit bacterial growth. […] The P. aeruginosa ATCC 27853 and A. baumannii ATCC 19606, along with the hyper-permeable P. aeruginosa ATCC 35151 and an engineered efflux pump-compromised strain of P. aeruginosa (ΔmexAB-oprM) were used to determine the ability of PBP inhibitors to penetrate the outer membrane of P. aeruginosa and A. baumannii and assess antibacterial activity against these important gram-negative organisms.
(§3) Briefly, cryo-preserved bacterial cultures of challenge strains are streaked for isolation on appropriate agar medium, in this case cation-adjusted Mueller Hinton agar. Following incubation to allow growth of the colonies, plates are sealed with parafilm and stored refrigerated for up to two weeks. For preparation of assay inoculum and to ensure low variability, at least 5 colonies are picked from the agar plates with an inoculating loop and aseptically transferred to a culture tube containing 3 mL of cation-adjusted Mueller Hinton broth (CAMHB). The broth culture is grown for 3-5 hours at 37° C. with shaking at 200 rpm. Meanwhile, 2-fold serial dilutions of test compounds are conducted in a 96-well plate with a final volume of 75 μL per well at 2-fold the final desired concentration. After the dilution plates are set up the growing cultures are then diluted in a cuvette containing CAMHB and the optical density is measured at 600 nm. The inoculum is diluted such that 75 μL of this culture in CAMHB results in a starting bacterial concentration of 2-8×10^5 CFU/mL when added to the dilution plates. The plates are incubated for 16-20 hours for Enterobacteriaceae and Pseudomonas and 20-24 hours for Acinetobacter at 37° C. The MIC values are read visually as the lowest concentration well with no bacterial growth.
(In general: Broth dilution looks for growth in wells or tubes with falling amounts of substance.)

Another test deals with E. coli 901C. Description: Broth microdilution MIC in CAMHB. The class given is cell-based. As to conditions: Escherichia coli; MHB; hyper-permeable E. coli 901C; read-out: Minimum Inhibitory Concentration, E. coli 901C. On the procedure: as §1, §2, §3
The next test concerns E. coli AG100A. The experiment in a line: Broth microdilution MIC in CAMHB. The class given is cell-based. As to conditions: Escherichia coli, read-out: Minimum Inhibitory Concentration, E. coli AG100A. On the procedure:
as §1, §2, §3

The subject of a further test is E. coli AG100. Description: Broth microdilution MIC in CAMHB. Conditions: Escherichia coli; MHB; wild-type parent strain E. coli AG100; read-out: Minimum Inhibitory Concentration, E. coli AG100. The class given is cell-based. As for the experimental part: as §1, §2, §3
In the next test the test system is E. coli ATCC 25922. Description: Broth microdilution MIC in CAMHB. The format is cell-based. Conditions: Escherichia coli, ATCC25922; MHB; E. coli ATCC 25922; read-out: Minimum Inhibitory Concentration, E. coli 25922. On the procedure: as §1, §2, §3
For a further test, the system named is E. coli D22. Description: Broth microdilution MIC in CAMHB. Conditions: Escherichia coli; MHB; hyper-permeable E. coli D22; read-out: Minimum Inhibitory Concentration, E. coli D22. The class given is cell-based. As for the experimental part: as §1, §2, §3
The subject of test [1] is K. pneumoniae 848844 producing SHV-11 and KPC-2. The experiment in a line: Broth microdilution MIC in CAMHB. The class given is cell-based. As to conditions: Klebsiella pneumoniae, read-out: Minimum Inhibitory Concentration, K. pneumoniae 848844. As for the experimental part:
as §1, §2, §3

Test [2] concerns K. pneumoniae SI-117 producing VIM-1. Description: Broth microdilution MIC in CAMHB. The format is cell-based. As to conditions: Klebsiella pneumoniae, read-out: Minimum Inhibitory Concentration, K. pneumoniae SI-117. On the procedure:
as §1, §2, §3

Test [3] deals with K. pneumoniae UMM producing SHV-5 and KPC-2. Description: Broth microdilution MIC in CAMHB. The class given is cell-based. Conditions: Klebsiella pneumoniae, read-out: Minimum Inhibitory Concentration, K. pneumoniae UMM. On the procedure: as §1, §2, §3
The subject of test [4] is P. aeruginosa (ΔmexAB-oprM). Description: Broth microdilution MIC in CAMHB. The format is cell-based. Conditions: Pseudomonas aeruginosa, read-out: Minimum Inhibitory Concentration, P. aeruginosa ΔmexAB-OprM. As for the experimental part: as §1, §2, §3
In a further test the test system is P. aeruginosa ATCC 27853. Description: Broth microdilution MIC in CAMHB. The class given is cell-based. Conditions: Pseudomonas aeruginosa, ATCC27853; MHB; read-out: Minimum Inhibitory Concentration, P. aeruginosa ATCC 27853. As for the experimental part:
as §1, §2, §3

The test system of a further test is P. aeruginosa ATCC 35151. Description: Broth microdilution MIC in CAMHB. The format is cell-based. As to conditions: Pseudomonas aeruginosa, ATCC35151; MHB; hyper-permeable strain; read-out: Minimum Inhibitory Concentration, P. aeruginosa ATCC 35151. As for the experimental part: as §1, §2, §3
The next test has as its target T1, P. aeruginosa PBP3 (Pseudomonas aeruginosa, UniProt G3XD46).
T1 construct: made in house
Description: Bocillin-FL fluorescence polarization competition binding assay, P. aeruginosa PBP3. As to conditions: P. aeruginosa PBP3; assay validation with beta-lactams; read-out: EC50 (concentration of beta-lactam required to reduce the amount of PBP bound-Bocillin-FL by 50%). An excerpt: Example I: Experimental Method for Penicillin-Binding Protein Binding Assays with Bocillin-FL Via Fluorescence Polarization
To determine the ability of boronic acid-based test PBP inhibitors to bind Penicillin Binding Proteins (PBPs), Bocillin-FL (fluorescently-labeled penicillin V; ThermoFisher Scientific) was used in a fluorescence polarization (FP) competition binding assay to assess inhibitor binding to PBP2, PBP3 or PBP4 from Escherichia coli (K12), PBP3 from Pseudomonas aeruginosa (PA01), PBP1a, PBP2 and PBP3 from Acinetobacter baumannii (ATCC 19606), and PBP2 from Neiserria gonorrheae (FA19). PBPs were cloned and purified as described previously (E. coli PBPs, King, D. T, et al., ACS Infectious Diseases 2015, 1, 175-184; P. aeruginosa PBP3, Han et. al., PNAS 2010, 107 (51), 22002-22007; A. baumannii PBPs, Penwell et. al., Antimicrob. Agents Chemother. 2015, 59 (3), 1680-1689; N. gonorrhoeae PBP2, Singh et. al., J Biol. Chem. 2019, 294 (38), 14020-14032). To establish assay conditions for competition binding, enzyme titration/saturation binding experiments were initially performed. Bocillin-FL was prepared at 0.2 μM in a buffer comprised of 50 mM Hepes (pH 8.0), 300 mM NaCl and 5% (v/v) glycerol for reactions with E. coli, P. aeruginosa and N. gonorrhoeae PBPs, and 25 mM Tris (pH 8.0), 200 mM NaCl and 10% (v/v) glycerol and 0.005% (v/v) Tween 20 for reactions with A. baumannii PBPs. Saturation binding was performed by mixing 40 μl of PBP solutions ranging in concentrations from 0-24 μM with 40 μl of the 0.2 μM Bocillin-FL solution, in individual wells of a black 384-well microplate. FP was measured immediately upon mixing (Excitation, 490 nm; Emission, 520 nm; g-factor, 0.96), using a Cytation3 (BioTek) microplate reader and measured continuously for up to 120 minutes. […] The competition binding assay (80 μl final volume) was validated using beta-lactams and PBPs at final concentrations of: 1.5 μM, E. coli PBP3; 0.75 μM, P. aeruginosa PBP3; 1 μM A. baumannii PBP1a; 2.5 μM A. baumannii PBP2; 0.2 μM A. baumannii PBP3; and […] N. gonorrhoeae PBP2. Bocillin-FL was at 0.1 μM (0.05 μM with A. baumannii PBP1a) and beta-lactam concentrations ranged from 0-1000 μM. […] Bocillin-FL was added and the FP immediately measured for up to 60 minutes (90 minutes for E. coli PBP2). […] The beta-lactam potency was reported as the concentration of beta-lactam required to reduce the amount of PBP bound-Bocillin-FL by 50% (EC50). […] Binding assays for boronic acid PBP inhibitors were performed in an identical fashion for the respective PBPs

Converted amounts (≈) assume the structure as drawn.

T1 sequence (G3XD46 whole entry): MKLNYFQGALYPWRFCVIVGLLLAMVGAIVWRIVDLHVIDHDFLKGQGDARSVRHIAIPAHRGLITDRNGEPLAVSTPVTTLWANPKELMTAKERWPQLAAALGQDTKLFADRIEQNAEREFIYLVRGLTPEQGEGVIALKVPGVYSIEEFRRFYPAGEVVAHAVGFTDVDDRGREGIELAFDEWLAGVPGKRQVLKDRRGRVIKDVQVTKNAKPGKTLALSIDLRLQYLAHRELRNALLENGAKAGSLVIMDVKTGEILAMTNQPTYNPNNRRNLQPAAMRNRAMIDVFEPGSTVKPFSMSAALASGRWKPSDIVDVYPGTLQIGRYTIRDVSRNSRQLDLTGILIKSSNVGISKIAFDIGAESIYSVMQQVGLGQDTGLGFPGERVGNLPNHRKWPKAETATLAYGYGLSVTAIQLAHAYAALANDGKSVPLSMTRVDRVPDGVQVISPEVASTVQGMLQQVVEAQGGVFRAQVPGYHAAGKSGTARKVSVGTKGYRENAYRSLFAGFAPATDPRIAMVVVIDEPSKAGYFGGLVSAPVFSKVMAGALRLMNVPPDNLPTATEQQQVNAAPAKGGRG

As to `NCCN1CCN(C(=O)N[C@H](C(=O)N[C@H]2Cc3cccc(C(=O)O)c3OB2O)c2c(Cl)cccc2Cl)C(=O)C1=O` (single isomer, unassigned) [Example 225], the MIC with A. baumannii ATCC 19606, in the test with E. coli 901C, in the test on E. coli AG100A, in the test on E. coli AG100, in the test with E. coli ATCC 25922 and with E. coli D22 was over 128 µg/mL throughout. The MIC was over 128 µg/mL in test [1]; over 128 µg/mL in test [2]; 32 to 64 µg/mL (≈ 54 to 108 µM) in test [3]; over 128 µg/mL in [4]; over 128 µg/mL in the test with P. aeruginosa ATCC 27853; over 128 µg/mL in the test with P. aeruginosa ATCC 35151.
With `NC1(CN2CCN(C(=O)N[C@@H](C(=O)N[C@H]3Cc4cccc(C(=O)O)c4OB3O)c3cc(F)c(O)c(F)c3F)C(=O)C2=O)CC1` (single isomer, unassigned) [Example 244], the MIC with A. baumannii ATCC 19606 is over 128 µg/mL; in the test on E. coli 901C, over 128 µg/mL; in the test with E. coli AG100A, 32 to 64 µg/mL (≈ 51.7 to 103 µM); in the test on E. coli AG100, over 128 µg/mL; with E. coli ATCC 25922, 8 to 16 µg/mL (≈ 12.9 to 25.8 µM); with E. coli D22 it was 32 to 64 µg/mL (≈ 51.7 to 103 µM). Further, the MIC is 32 to 64 µg/mL (≈ 51.7 to 103 µM) in test [1]; 2 to 4 µg/mL (≈ 3.23 to 6.46 µM) in [2]; under 0.25 µg/mL in test [3]; 2 to 4 µg/mL (≈ 3.23 to 6.46 µM) in test [4]; 32 to 64 µg/mL (≈ 51.7 to 103 µM) in the test with P. aeruginosa ATCC 27853; under 0.25 µg/mL with P. aeruginosa ATCC 35151.
Regarding `NC1(CN2CCN(C(=O)NC(C(=O)N[C@H]3Cc4cccc(C(=O)O)c4OB3O)c3cc(F)c(O)c(F)c3F)C(=O)C2=O)CC1` (single isomer, unassigned) [Example 245], the MIC with A. baumannii ATCC 19606, in the test with E. coli 901C, with E. coli AG100A, in the test with E. coli AG100, with E. coli ATCC 25922 and in the test on E. coli D22 was over 128 µg/mL each time. In addition, the MIC in test [1] was over 128 µg/mL; in test [2], 8 to 16 µg/mL (≈ 12.9 to 25.8 µM); in test [3], 2 to 4 µg/mL (≈ 3.23 to 6.46 µM); in test [4], 8 to 16 µg/mL (≈ 12.9 to 25.8 µM); with P. aeruginosa ATCC 27853, over 128 µg/mL; with P. aeruginosa ATCC 35151 it was 0.5 to 1 µg/mL (≈ 0.807 to 1.61 µM).
For the compound `NCCCN1CCN(C(=O)N[C@@H](C(=O)N[C@H]2Cc3cccc(C(=O)O)c3OB2O)c2cc(F)c(O)c(F)c2F)C(=O)C1=O` (single isomer, unassigned) [Example 246], the MIC in the test with A. baumannii ATCC 19606 is over 128 µg/mL; with E. coli 901C, over 128 µg/mL; with E. coli AG100A, over 128 µg/mL; in the test with E. coli AG100, over 128 µg/mL; with E. coli ATCC 25922, 32 to 64 µg/mL (≈ 52.7 to 105 µM); with E. coli D22, 32 to 64 µg/mL (≈ 52.7 to 105 µM). The MIC in test [1] was over 128 µg/mL; in test [2], 8 to 16 µg/mL (≈ 13.2 to 26.3 µM); in test [3], 2 to 4 µg/mL (≈ 3.29 to 6.59 µM); in test [4], 8 to 16 µg/mL (≈ 13.2 to 26.3 µM); in the test on P. aeruginosa ATCC 27853 it was over 128 µg/mL; in the test with P. aeruginosa ATCC 35151, 0.5 to 1 µg/mL (≈ 0.823 to 1.65 µM).
Regarding `NCCCN1CCN(C(=O)N[C@H](C(=O)N[C@H]2Cc3cccc(C(=O)O)c3OB2O)c2cc(F)c(O)c(F)c2F)C(=O)C1=O` (single isomer, unassigned) [Example 247], the MIC is over 128 µg/mL with A. baumannii ATCC 19606, 2 to 4 µg/mL (≈ 3.29 to 6.59 µM) in [4], 8 to 16 µg/mL (≈ 13.2 to 26.3 µM) with P. aeruginosa ATCC 27853 and under 0.25 µg/mL in the test on P. aeruginosa ATCC 35151.
On to `C[C@H]1[C@H](NC(=O)/C(=N\OC(C)(C)C(=O)O)c2csc(N)n2)C(=O)N1S(=O)(=O)O` [aztreonam, reference compound], for which, at P. aeruginosa PBP3, the EC50 is under 500 nM.
